Measured values: US20100280050A1, “Piperidinylamino-Thieno[2,3-D] Pyrimidine Compounds for Treating Fibrosis” (priority 2007, published 2010)

Legend:
[1] = test system: all other 5-HT receptor subtypes; assay: affinity for the other 5-HT receptor subtypes; assay type: binding; details: 5-HT2B versus all other 5-HT subtypes, except 5-HT1A
[2] = target: more than 51 receptors including GPCRs, ion channels and receptor tyrosine kinases; assay: panel of more than 51 receptors; assay type: binding; details: almost no affinity, read-out: Ki, more than 51 receptors tested
dopamine D3 receptor = dopamine D3 receptor (Homo sapiens, UniProt P35462); assay: dopamine D3 receptor affinity; assay type: binding; details: moderate activity
dopamine D2 receptor = dopamine D2 receptor (Homo sapiens, UniProt P14416); assay: dopamine D2 receptor antagonism; assay type: biochemical; details: weak antagonist
dopamine D1 receptor = dopamine D1 receptor (Homo sapiens, UniProt P21728); assay: dopamine D1 receptor activity; assay type: binding; details: no activity
dopamine D5 receptor = dopamine D5 receptor (Homo sapiens, UniProt P21918); assay: dopamine D5 receptor activity; assay type: binding; details: no activity
σ1 receptor = σ1 receptor (Homo sapiens, UniProt Q99720); assay: σ1 receptor binding; details: moderate binding
σ2 receptor = σ2 receptor (Homo sapiens, UniProt Q5BJF2); assay: σ2 receptor binding; details: moderate binding
σ receptors = assay: σ receptor functional assays (agonist activity); assay type: biochemical; details: very weak agonist
[3] = test system: rat activated hepatic myofibroblasts; assay: acridine orange assay for morphological assessment of apoptosis; assay type: cell-based; details: 1 μM dose
Method: The compound 5-((4-(6-chlorothieno[2,3-d]pyrimidin-4-ylamino)piperidin-1-yl)methyl)-2-fluorobenzonitrile (hereinafter “compound A”), was evaluated for activity in promoting apoptosis of rodent and human activated hepatic myofibroblasts. The activity of compound A was compared against untreated cells, cells treated with dimethylsulfoxide, and cells treated with spiperone. Spiperone is a nonselective 5-HT2B antagonist. In the acridine orange assay for morphological assessment of apoptosis, compound A dose-dependently promotes elevated rates of apoptosis of rat activated hepatic myofibroblasts (40% of cells apoptotic with 1 μM dose). The results of the acridine orange assay are depicted in FIGS. 1-4.

[4] = test system: human activated hepatic myofibroblasts (primary activated hepatic stellate cells); assay: apoptosis of human activated hepatic myofibroblasts; assay type: cell-based; details: overnight incubation
Method: Compound A was tested on human activated hepatic myofibroblasts. The tested human cells were primary activated hepatic stellate cells isolated from normal human liver resected during removal of adjacent tumour tissue in patients with primary liver cancer. The cells were then cultured on plastic in full media and passaged at least 4 times to generate pure activated activated hepatic stellate cells, representing the major fibrogenic cell of the liver.

[5] = test system: Caspase 3/7 activity in rat activated hepatic stellate cells; assay: Caspase-Glo 3/7 assay in rHSC; assay type: cell-based; details: FIG. 7
Method: Compound A was evaluated for activity in inducing Caspase 3/7 activity. Caspase 3 is involved in regulating apoptosis, and increases in Caspase 3 activity in this assay correlate to increased levels of apoptosis.
General Procedure: The assay was performed based on the following protocol: • 1. Passage rHSC at an appropriate density on a 96 well format and allow to adhere overnight. • 2. Treat cells with inhibitors for an appropriate length of time including the relevant controls. • 3. Allow both buffer and substrate to reach room temperature. • 4. Immediately prior to use, resuspend the substrate in 2.5 mL of buffer and mix thoroughly. • 5. Remove cells from incubator and allow the plates to cool to room temperature. • 6. Add Caspase-Glo® reagent at a 1:1 ratio (i.e. 100 μL to 100 μL media) and shake at 300 rpm for 30 sec. • 7. Incubate cells with Caspase-Glo® reagent for 2 h at room temperature protected from light. • 8. Transfer all media to white walled luciferase plates and determined luminescence using the MicroBeta luminometer. • 9. Caspase activity is expressed as fold-change relative to the untreated control.
Caspase-Glo® 3/7 reagent is available from Promega (Calif., USA). The Caspase-Glo® reagent contains a DEVD-caspase substrate which is selectively cleaved by caspase enzymes 3 and 7. […]

[6] = test system: lung lesions induced by monocrotaline (MCT); assay: monocrotaline (MCT) model, lung lesion scoring; assay type: in vivo
Method: (§1) Compound A was assayed for effects on lung and liver lesions, as well as liver fibrosis in animals suffering from liver fibrosis induced by monocrotaline (MCT).
(§2) General Procedure: In this assay, animals were treated with MCT/vehicle, MCT with phosphate-buffered saline (PBS), or MCT with compound A. Following treatment, animals were sacrificed, and lung tissue was perfused and fixed in 10% neutral buffered formalin via the trachea. Lung and liver tissue was removed, sectioned and stained with hematoxylin-eosin. 41 liver and 41 lung slides were obtained for histologic evaluation. All slides were scored blindly without knowledge of experimental conditions. Lung and liver slides were evaluated according to the criteria listed below. Each parameter was subjectively evaluated and scored from 0-5, with 0 being no discernable lesions and 5 indicating the most severe lesions. Final scores for both the liver and lung lesions were calculated by averaging all parameters for each individual tissue.
• 1. Alveolar edema • 2. Congestion • 3. Intra-alveolar hemorrhage • 4. Alveolar macrophage infiltrate • 5. Degree of erythrophagocytosis • 6. Degree of hemosiderosis • 7. Thickening of alveolar septa • 8. Type II pneumocyte hyperplasia • 9. General arterial thickening • 10. Thickening of tunica intima • 11. Thickening of tunica media • 12. Thickening of tunica adventitia • 13. Degree of perivascular edema. • 14. Perivascular inflammatory cells (lymphs and plasma cells) • 15. Increased BALT • 16. Endothelial reactivity and prominence.

[7] = test system: liver lesions induced by monocrotaline (MCT); assay: monocrotaline (MCT) model, liver lesion scoring; assay type: in vivo; details: for liver lesion severity score compared to Vehicle+PBS control: p<0.05
Method: as §1, §2
(§3) • 1. Capsular fibrin • 2. Interlobular fibrosis • 3. Zone 1, 2, 3 necrosis • 4. Central vein, portal vein necrosis • 5. Sinusoidal spaces (hepatocytes dropout) • 6. Spaces of Disse • 7. Bile duct • 8. Bile caniliculi • 9. Kupffer cells • 10. Hepatocyte appositional surfaces • 11. Cell and nuclear size variation • 12. Cytoplasm variation

[8] = test system: liver fibrosis induced by monocrotaline (MCT); assay: monocrotaline (MCT) model, hepatic fibrosis analysis; assay type: in vivo
Method: as §1, §2, §3
There were varying degrees of myofibroblast proliferation and collagen deposition surrounding portal tracts with occasional bridging into zones two and three. Bile duct proliferation was occasionally associated with areas of fibrosis.

Chain of σ1 receptor (Q99720 whole entry): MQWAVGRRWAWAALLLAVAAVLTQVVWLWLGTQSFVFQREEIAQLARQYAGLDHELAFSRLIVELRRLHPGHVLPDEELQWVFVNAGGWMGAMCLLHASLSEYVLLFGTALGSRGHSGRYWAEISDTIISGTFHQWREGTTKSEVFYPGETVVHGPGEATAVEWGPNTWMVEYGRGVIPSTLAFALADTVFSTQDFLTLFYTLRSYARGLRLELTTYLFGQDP
Chain of dopamine D2 receptor (P14416 whole entry, species assumed): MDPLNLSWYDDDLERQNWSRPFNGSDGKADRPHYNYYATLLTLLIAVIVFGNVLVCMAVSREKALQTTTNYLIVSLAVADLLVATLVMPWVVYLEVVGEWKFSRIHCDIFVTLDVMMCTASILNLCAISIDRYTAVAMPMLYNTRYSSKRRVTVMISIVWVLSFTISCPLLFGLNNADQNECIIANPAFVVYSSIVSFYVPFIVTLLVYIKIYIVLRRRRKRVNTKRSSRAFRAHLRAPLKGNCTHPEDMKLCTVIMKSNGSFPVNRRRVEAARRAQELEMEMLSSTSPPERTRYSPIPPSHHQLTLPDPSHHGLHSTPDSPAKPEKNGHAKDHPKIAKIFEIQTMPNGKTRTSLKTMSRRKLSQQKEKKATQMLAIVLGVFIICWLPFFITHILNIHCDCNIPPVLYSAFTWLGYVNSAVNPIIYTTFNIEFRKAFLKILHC
Chain of σ2 receptor (Q5BJF2 whole entry): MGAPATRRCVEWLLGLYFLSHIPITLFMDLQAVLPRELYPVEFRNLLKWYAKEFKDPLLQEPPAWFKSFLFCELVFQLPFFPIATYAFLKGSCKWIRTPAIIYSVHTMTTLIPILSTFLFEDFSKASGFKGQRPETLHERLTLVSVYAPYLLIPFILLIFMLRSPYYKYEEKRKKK
Chain of dopamine D5 receptor (P21918 whole entry): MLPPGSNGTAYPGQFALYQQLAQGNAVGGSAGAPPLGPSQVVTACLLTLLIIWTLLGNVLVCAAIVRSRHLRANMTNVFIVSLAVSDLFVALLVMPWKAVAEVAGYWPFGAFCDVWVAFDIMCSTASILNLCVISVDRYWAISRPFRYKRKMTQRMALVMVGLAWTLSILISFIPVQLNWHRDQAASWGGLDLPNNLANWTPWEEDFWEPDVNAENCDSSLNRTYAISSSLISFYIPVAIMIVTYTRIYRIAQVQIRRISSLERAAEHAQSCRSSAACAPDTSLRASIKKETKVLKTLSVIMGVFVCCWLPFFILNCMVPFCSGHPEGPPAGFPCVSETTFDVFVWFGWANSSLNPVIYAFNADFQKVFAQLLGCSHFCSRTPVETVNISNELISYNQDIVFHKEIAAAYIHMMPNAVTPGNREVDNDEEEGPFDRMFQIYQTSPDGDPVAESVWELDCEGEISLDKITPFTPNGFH
Chain of dopamine D1 receptor (P21728 whole entry): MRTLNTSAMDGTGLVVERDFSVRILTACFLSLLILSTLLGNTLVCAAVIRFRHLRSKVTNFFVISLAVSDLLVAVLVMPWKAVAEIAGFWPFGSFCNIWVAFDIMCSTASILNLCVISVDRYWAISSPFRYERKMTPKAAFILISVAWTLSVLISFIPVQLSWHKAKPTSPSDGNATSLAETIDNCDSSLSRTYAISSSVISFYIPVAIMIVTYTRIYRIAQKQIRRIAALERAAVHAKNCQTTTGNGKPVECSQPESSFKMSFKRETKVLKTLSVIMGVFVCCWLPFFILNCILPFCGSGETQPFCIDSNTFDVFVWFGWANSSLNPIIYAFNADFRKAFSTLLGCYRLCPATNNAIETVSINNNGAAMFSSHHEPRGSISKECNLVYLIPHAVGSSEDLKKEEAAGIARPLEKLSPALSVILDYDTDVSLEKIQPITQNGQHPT
Chain of dopamine D3 receptor (P35462 whole entry, species assumed): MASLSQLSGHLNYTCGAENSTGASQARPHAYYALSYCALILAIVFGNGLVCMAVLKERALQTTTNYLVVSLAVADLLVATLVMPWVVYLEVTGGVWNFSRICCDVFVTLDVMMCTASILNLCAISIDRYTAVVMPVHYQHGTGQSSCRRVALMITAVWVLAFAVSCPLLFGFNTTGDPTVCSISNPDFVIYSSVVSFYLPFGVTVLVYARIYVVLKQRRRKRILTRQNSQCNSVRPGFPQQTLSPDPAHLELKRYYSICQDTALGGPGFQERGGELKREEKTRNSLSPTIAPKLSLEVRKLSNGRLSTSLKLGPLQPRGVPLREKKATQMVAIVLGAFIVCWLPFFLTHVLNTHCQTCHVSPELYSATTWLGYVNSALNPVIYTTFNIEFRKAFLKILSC

SMILES: N#Cc1cc(CN2CCC(Nc3ncnc4sc(Cl)cc34)CC2)ccc1F [compound A, 5-((4-(6-Chlorothieno[2,3-d]pyrimidin-4-ylamino)piperidin-1-yl)methyl)-2-fluorobenzonitrile]
- differences in receptor affinities compared with all other 5-HT receptor subtypes [1]: more than 500 fold
- Ki [2]: > 1000 nM
- Ki (dopamine D3 receptor): ~310 nM
- IC50 (dopamine D2 receptor): 670 nM
- Ki (dopamine D1 receptor): > 5000 nM
- Ki (dopamine D5 receptor): > 5000 nM
- Ki (σ1 receptor): 100 nM
- Ki (σ2 receptor): 110 nM
- EC50 (σ receptors): ~10000 nM
- cells apoptotic [3]: 40%
- apoptosis ([4]; 1 μM): 20%
- apoptosis ([4]; 100 μM): 60%
- Caspase activity (fold-change relative to the untreated control) [5]: increased Caspase activity in a time-dependent fashion
- lung lesion score versus Vehicle+MCT group ([6]; 50 mg/kg + MCT, p=0.09): lower lesion score
- lung lesion score versus Vehicle+MCT group ([6]; 100 mg/kg + MCT, p<0.01, similar to Vehicle+PBS group): reduced in severity
- MCT-induced pulmonary lesion, histology (FIG. 11) ([6]; MCT + 50 mg/kg, Part B): improvement of MCT-induced pulmonary lesion
- MCT-induced pulmonary lesions, histology (FIG. 11) ([6]; MCT + 100 mg/kg, Part C, compared to Part B): further reduction of MCT-induced pulmonary lesions
- liver lesion severity score compared to Vehicle+PBS control ([7]; 50 mg/kg + MCT): significant increase
- liver lesion severity score compared to Vehicle+PBS control ([7]; 100 mg/kg + MCT): significant increase
- periportal necrosis, histology (FIG. 11) ([7]; MCT + 50 mg/kg, Part B compared to Part A (vehicle + MCT)): slightly reduced
- periportal necrosis, histology (FIG. 11) ([7]; MCT + 100 mg/kg, Part C): further reduction of periportal necrosis
- sinusoidal cells with small, condensed nuclei (may represent apoptotic stellate cells) ([7]; groups receiving 50 mg/kg and 100 mg/kg): Moderate numbers
- degree of periportal fibrosis ([8]; monocrotaline + 50 mg/kg): minimal to mild fibrosis
- livers with periportal fibrosis ([8]; monocrotaline + 50 mg/kg, 4 out of 8 livers): 50%
- degree of periportal fibrosis ([8]; monocrotaline + 100 mg/kg): negligible-very minimal (1 small triad) fibrosis
- livers with periportal fibrosis ([8]; monocrotaline + 100 mg/kg, 1 out of 13 livers): 7%
